We go through five molecules from US7067531B2, “Farnesyl transferase inhibiting 6-heterocyclylmethyl quinolinone derivatives” (priority 2000, dated 2006).

The term melting point denotes the temperature of the solid-liquid transition.

`Cn1cncc1C(O)(c1ccoc1)c1ccc2c(c1)c(-c1cccc(Cl)c1)cc(=O)n2C` (racemic) [Example B6, (±)-4-(3-chlorophenyl)-6-[3-furanylhydroxy(1-methyl-1H-imidazol-5-yl)methyl]-1-methyl-2(1H)-quinolinone] gave a melting point of 248 °C.

The molecule `Cn1cncc1C(O)(c1ccc2c(c1)c(-c1cccc(Cl)c1)cc(=O)n2C)c1nccn1C` (centres unmarked) [Example B7, 4-(3-chlorophenyl)-6-[hydroxy(1-methyl-1H-imidazol-2-yl)(1-methyl-1H-imidazol-5-yl)methyl]-1-methyl-2(1H)-quinolinone] returned a melting point of 130 °C.

`Cn1cncc1C(N)(c1ccoc1)c1ccc2c(c1)c(-c1cccc(Cl)c1)cc(=O)n2C` (racemic) [Example B8, (±)-6-[amino-3-furanyl(1-methyl-1H-imidazol-5-yl)methyl]-4-(3-chlorophenyl)-1-methyl-2(1H)-quinolinone] returned a melting point of 197 °C.

Regarding `Cn1cncc1C(O)(c1ccc2c(c1)c(-c1cccc(Cl)c1)cc(=O)n2C)c1nccs1` (racemic) [Example B3 F2, (±)-4-(3-chlorophenyl)-6-[hydroxy(1-methyl-1H-imidazol-5-yl)-2-thiazolylmethyl]-1-methyl-2(1H)-quinolinone], the melting point is 246 °C.

`O=C(O)C(=O)O.O=c1[nH]c2ccc(C(c3nc(-c4ccccc4)cs3)n3ccnc3-c3ccccc3)cc2c(-c2cccc(Cl)c2)c1CO` (centres unmarked) returned a melting point of 149 °C.
